Measured values published in PubChem BioAssay (NCI).
Values joined by “and” are separate entries in the source; they are usually repeats but may differ in a detail not shown here. Identical values can stand only once.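 48-hour exposure; five concentrations; linearly interpolated endpoints. GI50 = concentration required for 50% inhibition of growth. TGI: total growth inhibition.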

Legend:
Assay in all cases: NCI tumour cell line growth inhibition, 48 h
XF 498 CNS = system: XF 498 CNS
HOP-18 NSCLC = system: HOP-18 NSCLC
SNB-78 CNS = system: SNB-78 CNS
M19-MEL melanoma = system: M19-MEL melanoma
DMS 114 small cell lung = system: DMS 114 small cell lung
KM20L2 colon = system: KM20L2 colon
LXFL 529 NSCLC = system: LXFL 529 NSCLC
RXF-631 renal = system: RXF-631 renal
P388 leukemia = system: P388 leukemia
P388/ADR leukemia = system: P388/ADR leukemia
SN12K1 renal = system: SN12K1 renal

Row | Structure (SMILES) | TGI (XF 498 CNS) | TGI (HOP-18 NSCLC) | TGI (SNB-78 CNS) | TGI (M19-MEL melanoma) | TGI (DMS 114 small cell lung) | TGI (KM20L2 colon) | TGI (LXFL 529 NSCLC) | further results
1 | CCCOP(=S)(N1CC1)N1CC1 | > 100 µM | > 100 µM | > 100 µM | > 100 µM | > 100 µM | > 100 µM |  | 
2 | COc1ccc(/C=C(\Cl)c2ccc(OC)cc2)cc1 |  |  |  | > 100 µM | > 100 µM | > 100 µM | > 100 µM | 
3 | Oc1ccc(Cn2c(-c3ccc(O)cc3)nc3ccccc32)cc1 | > 100 µM |  |  | > 100 µM | > 100 µM | > 100 µM | > 100 µM | TGI (RXF-631 renal): > 100 µM
4 | CC#Cc1c(C#CC)c(OC)c2c(c1OC)C(=O)c1ccccc1C2=O | > 100 µM |  |  | > 100 µM | 89 µM | > 100 µM | > 100 µM | 
5 | CC(=O)C1=NN(c2ccccc2)C2(S1)SC(c1ccccc1)(c1ccccc1)c1ccccc12 (stereo unspecified) |  | > 100 µM | > 100 µM | > 100 µM | > 100 µM | > 100 µM | > 100 µM | 
6 | CN(C)Cc1[nH]c2ccccc2c1C(=O)c1ccccc1 | > 100 µM |  |  |  |  | > 100 µM | > 100 µM | 
7 | O=C1c2ccccc2C(=O)c2c(O)c(NCCNCCO)cc(O)c21 | 19 µM | 18.8 µM | 18.7 µM | 15.2 µM | 16.1 µM | 16.1 µM | 18.1 µM | 
8 | COc1ccc(C2C(Cl)C(=O)N2NC(=O)c2ccccc2O)cc1OC (stereo unspecified) | 47.7 µM |  | > 100 µM | > 100 µM | > 100 µM |  |  | 
9 | CC1(C)N=C(Oc2ccccc2)n2nccc2N1 | > 100 µM | > 100 µM |  | > 100 µM | > 100 µM | > 100 µM | > 100 µM | 
10 | COc1nc(OC)nc(Sc2ccc(Sc3ccc(Sc4nc(OC)nc(OC)n4)cc3)cc2)n1 | > 100 µM | > 100 µM | > 100 µM | > 100 µM | > 100 µM | > 100 µM | > 100 µM | 
11 | C(=N/NC1=NCCN1)/c1c2ccccc2c(/C=N\NC2=NCCN2)c2ccccc12 | 0.372 µM and 0.298 µM | 0.888 µM and 1.5 µM | 3.83 µM and 9.8 µM | 0.355 µM and 0.258 µM | 0.603 µM and 0.421 µM | 2.16 µM and 1.22 µM |  | GI50 (P388 leukemia): 0.0561 µM; TGI (P388 leukemia): 0.571 µM and 1.08 µM; GI50 (XF 498 CNS): 0.0524 µM; GI50 (P388/ADR leukemia): 86.6 µM; TGI (P388/ADR leukemia): 116 µM; GI50 (HOP-18 NSCLC): 0.282 µM; GI50 (SNB-78 CNS): 0.368 µM; GI50 (M19-MEL melanoma): 0.0605 µM; GI50 (SN12K1 renal): 0.0688 µM; TGI (SN12K1 renal): 0.933 µM and 0.222 µM; GI50 (DMS 114 small cell lung): 0.0491 µM and 0.0606 µM; GI50 (KM20L2 colon): 0.0553 µM
12 | Cc1ccc(F)c2c(=O)cc(-c3ccccc3)[nH]c12 |  | > 100 µM |  | > 100 µM | > 100 µM |  | > 100 µM | 
